Data from ChEMBL document CHEMBL4138198, “Synthesis of new 1-benzyl tetrahydropyridinylidene ammonium salts and their antimicrobial and anticellular activities” (Eur J Med Chem, 2018).
Converted amounts (≈) assume the structure as drawn.

Tests used:
[1] = test system: Plasmodium falciparum; experiment: Antimalarial activity against erythrocytic stage of Plasmodium falciparum NF54 assessed as inhibition of [3H]-hypoxanthine incorporation after 48 hrs by liquid scintillation counting analysis; type: functional, organism-based
[2] = test system: L6; experiment: Cytotoxicity against rat L6 cells after 70 hrs by Alamar blue staining-based fluorometric analysis; type: cell-based; conditions: L6, 70 h
[3] = Selectivity index, ratio of IC50 for rat L6 cells to IC50 for erythrocytic stage of Plasmodium falciparum NF54; type: toxicity; conditions: read-out: Ratio IC50
[4] = test system: Trypanosoma brucei rhodesiense; experiment: Antitrypanosomal activity against Trypanosoma brucei rhodesiense STIB900 bloodstream forms after 70 hrs by Alamar blue staining-based fluorometric analysis; type: functional, organism-based; conditions: STIB900, 70 h
[5] = Selectivity index, ratio of IC50 for rat L6 cells to IC50 for Trypanosoma brucei rhodesiense STIB900 bloodstream forms; type: toxicity; conditions: read-out: Ratio IC50
[6] = test system: Plasmodium berghei; experiment: Antiplasmodial activity against GFP expressing Plasmodium berghei ANKA infected in NMRI mouse assessed as reduction in parasitemia at 10 mg/kg, ip administered 4 hrs, 24 hrs, 48 hrs, 72 hrs post infection for 4 days and measured 72 hrs post infection by FACS analysis relative to control; type: functional; parameters: scale not given: the % may be the effect or the level left
[7] = test system: Plasmodium berghei; experiment: Antiplasmodial activity against GFP expressing Plasmodium berghei ANKA infected in NMRI mouse assessed as mouse mean survival days at 10 mg/kg, ip administered 4 hrs, 24 hrs, 48 hrs, 72 hrs post infection for 4 days and measured 72 hrs post infection by FACS analysis (reference value: 4 days); type: functional
[8] = Growth inhibition of human MRC5 cells at 140 uM after 72 hrs by XTT assay relative to control; type: cell-based; conditions: read-out: GI
[9] = test system: Mycolicibacterium smegmatis; experiment: Antimycobacterial activity against Mycobacterium smegmatis ATCC 14468 after 72 hrs by MTT dye-based microbroth dilution assay; type: functional; conditions: ATCC 14468, 72 h
[10] = test system: Candida tropicalis; experiment: Antimicrobial activity against Candida tropicalis ATCC 13803 assessed as zone of inhibition at 50 ug per disc after 48 hrs by disc diffusion assay; type: functional; conditions: ATCC 13803, 48 h, read-out: DIZ
[11] = test system: Candida parapsilosis; experiment: Antimicrobial activity against Candida parapsilosis ATCC 90018 assessed as zone of inhibition at 50 ug per disc after 48 hrs by disc diffusion assay; type: functional; conditions: Lodderomyces parapsilosis, ATCC 90018, 48 h; read-out: DIZ
[12] = test system: Candida albicans; experiment: Antimicrobial activity against Candida albicans ATCC 10231 assessed as zone of inhibition at 50 ug per disc after 48 hrs by disc diffusion assay; type: functional; conditions: ATCC 10231, 48 h, read-out: DIZ
[13] = test system: Klebsiella oxytoca; experiment: Antimicrobial activity against Klebsiella oxytoca ATCC 8724 assessed as zone of inhibition at 50 ug per disc after 24 hrs by disc diffusion assay; type: functional; conditions: ATCC 8724, 24 h, read-out: DIZ
[14] = test system: Staphylococcus epidermidis; experiment: Antimicrobial activity against Staphylococcus epidermidis ATCC 12228 assessed as zone of inhibition at 50 ug per disc after 24 hrs by disc diffusion assay; type: functional; conditions: ATCC 12228, 24 h, read-out: DIZ
[15] = test system: Staphylococcus aureus; experiment: Antimicrobial activity against Staphylococcus aureus subsp. aureus ATCC 25923 assessed as zone of inhibition at 50 ug per disc after 24 hrs by disc diffusion assay; type: functional; conditions: ATCC 25923, 24 h, read-out: DIZ
[16] = test system: Pseudomonas aeruginosa; experiment: Antimicrobial activity against Pseudomonas aeruginosa ATCC 27853 assessed as zone of inhibition at 50 ug per disc after 24 hrs by disc diffusion assay; type: functional; conditions: ATCC 27853, 24 h, read-out: DIZ
[17] = test system: Bacillus subtilis; experiment: Antimicrobial activity against Bacillus subtilis subsp. subtilis ATCC 6051 assessed as zone of inhibition at 50 ug per disc after 24 hrs by disc diffusion assay; type: functional; conditions: subsp. subtilis ATCC 6051, 24 h, read-out: DIZ
[18] = test system: Escherichia coli; experiment: Antimicrobial activity against Escherichia coli ATCC 25922 assessed as zone of inhibition at 50 ug per disc after 24 hrs by disc diffusion assay; type: functional; conditions: ATCC 25922, 24 h, read-out: DIZ
[19] = Growth inhibition of human MRC5 cells at 120 uM after 72 hrs by XTT assay relative to control; type: cell-based; conditions: read-out: GI
[20] = Growth inhibition of human MRC5 cells at 117 uM after 72 hrs by XTT assay relative to control; type: cell-based; conditions: read-out: GI
[21] = Growth inhibition of human MRC5 cells assessed as metabolic active cells level at 123.3 uM after 72 hrs by XTT assay relative to control; type: ADME, cell-based; conditions: read-out: Activity
[22] = test system: Plasmodium berghei; experiment: Antiplasmodial activity against GFP expressing Plasmodium berghei ANKA infected in NMRI mouse assessed as reduction in parasitemia at 50 mg/kg, ip administered 4 hrs, 24 hrs, 48 hrs, 72 hrs post infection for 4 days and measured 72 hrs post infection by FACS analysis relative to control; type: functional; parameters: scale not given: the % may be the effect or the level left
[23] = test system: Plasmodium berghei; experiment: Antiplasmodial activity against GFP expressing Plasmodium berghei ANKA infected in NMRI mouse assessed as mouse mean survival days at 50 mg/kg, ip administered 4 hrs, 24 hrs, 48 hrs, 72 hrs post infection for 4 days and measured 72 hrs post infection by FACS analysis (reference value: 4 days); type: functional
[24] = test system: MRC5; experiment: Cytotoxicity against human MRC5 cells after 72 hrs by XTT assay; type: cell-based; conditions: MRC5, 72 h
[25] = Growth inhibition of human MRC5 cells assessed as metabolic active cells level at 147.7 uM after 72 hrs by XTT assay relative to control; type: ADME, cell-based; conditions: read-out: Activity
[26] = Growth inhibition of human MRC5 cells at 134 uM after 72 hrs by XTT assay relative to control; type: cell-based; conditions: read-out: GI

SMILES | IC50 [1] | IC50 ([2]; read-out: IC50) | selectivity ratio [3] | IC50 [4] | selectivity ratio [5] | also measured
CC1(C)CC(=[N+]2CCCC2)C=CN1Cc1ccc2ccccc2n1.[Cl-] | 90 nM | 125 µM | 1390 | 16.6 µM | 7.53 | Activity [6]: 0%; MSD [7]: 3 days; inhibition at 72 h, 140 µM [8]: 27 to 56%
CC(C)c1ccc(CN2C=CC(=[N+]3CCCC3)CC2(C)C)cc1 | 15 nM | 0.176 µM | 11.7 | 3.24 µM | 0.054 | 
CC1(C)CC(=[N+]2CCCC2)C=CN1Cc1ccc(C(F)(F)F)cc1.[Br-] | 36 nM | 125 µM | 3480 | 27.2 µM | 4.6 | Activity [6]: 54.2%; MSD [7]: 7 days; MIC [9]: 64 µg/mL; zone of inhibition at 50 µg/disc [10]: 15 mm; zone of inhibition at 50 µg/disc [11]: 0 mm; zone of inhibition at 50 µg/disc [12]: 15 mm; zone of inhibition at 50 µg/disc [13]: 7 mm; zone of inhibition at 50 µg/disc [14]: 18 mm; zone of inhibition at 50 µg/disc [15]: 8 mm; zone of inhibition at 50 µg/disc [16]: 0 mm; zone of inhibition at 50 µg/disc [17]: 10 mm; zone of inhibition at 50 µg/disc [18]: 0 mm; inhibition at 72 h, 120 µM [19]: 27 to 56%
CC1(C)CC(=[N+]2CCCC2)C=CN1Cc1cccc2ccccc12 | 63 nM | 0.61 µM | 9.68 | 0.89 µM | 0.69 | 
CC1(C)CC(=[N+]2CCCC2)C=CN1Cc1ccc(Br)cc1.[Br-] | 26 nM | 11.6 µM | 445 | 14.5 µM | 0.8 | Activity [6]: 48.1%; MSD [7]: 4 days; inhibition at 72 h, 117 µM [20]: 27 to 56%
Cc1ccc(CN2C=CC(=[N+]3CCCC3)CC2(C)C)cc1 | 100 nM | 94.9 µM | 949 | 4.24 µM | 22.4 | 
COc1cc(CN2C=CC(=[N+]3CCCC3)CC2(C)C)cc(OC)c1OC | 1100 nM | 192 µM | 174 | 16.2 µM | 11.8 | 
CC1(C)CC(=[N+]2CCCC2)C=CN1Cc1ccccc1Cl | 120 nM | 9.73 µM | 81.1 | 10.5 µM | 0.93 | 
CC1(C)CC(=[N+]2CCCC2)C=CN1Cc1ccccn1 | 2180 nM | > 327 µM | > 150 | 100 µM | > 3.26 | 
CC(C)(C)c1ccc(CN2C=CC(=[N+]3CCCC3)CC2(C)C)cc1 | 40 nM | 0.017 µM | 0.43 | 0.67 µM | 0.025 | viability at 72 h, 123.3 µM [21]: 0 to 10%
CC1(C)CC(=[N+]2CCCC2)C=CN1Cc1ccccc1C#N | 1090 nM | > 267 µM | > 245 | 70.9 µM | > 3.77 | 
CC1(C)CC(=[N+]2CCCC2)C=CN1Cc1ccc(Cl)cc1Cl | 43 nM | 2.99 µM | 69.5 | 12.8 µM | 0.23 | 
CC1(C)CC(=[N+]2CCCC2)C=CN1c1ccccc1 | 360 nM |  |  |  |  | 
CC1(C)CC(=[N+]2CCCC2)C=CN1Cc1ccccc1 | 130 nM | 12.3 µM | 94.8 | 61.6 µM | 0.2 | 
CC1(C)CC(=[N+]2CCCC2)C=CN1Cc1ccc([N+](=O)[O-])cc1.[Cl-] | 100 nM | > 286 µM | > 2860 | 79.8 µM | > 3.58 | MIC [9]: ≥ 128 µg/mL; zone of inhibition at 50 µg/disc [10]: 13 mm; zone of inhibition at 50 µg/disc [11]: 0 mm; zone of inhibition at 50 µg/disc [12]: 8 mm; zone of inhibition at 50 µg/disc [13]: 7 mm; zone of inhibition at 50 µg/disc [14]: 7 mm; zone of inhibition at 50 µg/disc [15]: 0 mm; zone of inhibition at 50 µg/disc [16]: 0 mm; zone of inhibition at 50 µg/disc [17]: 0 mm; zone of inhibition at 50 µg/disc [18]: 0 mm; Activity [22]: 78.4%; MSD [23]: 7 days
CC1(C)CC(=[N+]2CCCC2)C=CN1Cc1ccc2c(c1)OCO2 | 46 nM | 20.8 µM | 451 | 18.7 µM | 1.11 | 
CC1(C)CC(=[N+]2CCCC2)C=CN1Cc1ccc(F)cc1.[Br-] | 110 nM | > 272 µM | > 2480 | 39.2 µM | > 6.94 | Activity [6]: 31.6%; MSD [7]: 4 days
CC1(C)CC(=[N+]2CCCC2)C=CN1Cc1ccccc1C(F)(F)F | 180 nM | 6.95 µM | 38.6 | 9.75 µM | 0.71 | 
COc1ccc(CN2C=CC(=[N+]3CCCC3)CC2(C)C)cc1 | 110 nM | 168 µM | 1530 | 22.2 µM | 7.56 | 
CC1(C)CC(=[N+]2CCCC2)C=CN1Cc1ccc(Cl)cc1.[Cl-] | 27 nM | 20.1 µM | 743 | 19.7 µM | 1.02 | IC50 [24]: 121 µM; Activity [6]: 45.8%; MSD [7]: 9 days; viability at 72 h, 147.7 µM [25]: 0 to 10%; MIC [9]: 32 µg/mL; zone of inhibition at 50 µg/disc [10]: 21 mm; zone of inhibition at 50 µg/disc [11]: 0 mm; zone of inhibition at 50 µg/disc [12]: 20 mm; zone of inhibition at 50 µg/disc [13]: 7 mm; zone of inhibition at 50 µg/disc [14]: 22 mm; zone of inhibition at 50 µg/disc [15]: 14 mm; zone of inhibition at 50 µg/disc [16]: 0 mm; zone of inhibition at 50 µg/disc [17]: 11 mm; zone of inhibition at 50 µg/disc [18]: 0 mm
CC1(C)CC(=[N+]2CCCC2)C=CN1Cc1ccc(Cl)c(Cl)c1.[Cl-] | 21 nM | 112 µM | 5350 | 12.4 µM | 9.03 | Activity [6]: 39.9%; MSD [7]: 4 days; inhibition at 72 h, 134 µM [26]: 27 to 56%
CCN(CC)CCCC(C)Nc1ccnc2cc(Cl)ccc12 (centres undefined) [CHLOROQUINE] |  |  |  |  |  | Activity [6]: 99.6%; MSD [7]: 20 days
OC(Cn1cncn1)(Cn1cncn1)c1ccc(F)cc1F [FLUCONAZOLE] |  |  |  |  |  | zone of inhibition at 50 µg/disc [10]: 36 mm; zone of inhibition at 50 µg/disc [11]: 28 mm; zone of inhibition at 50 µg/disc [12]: 24 mm
NNC(=O)c1ccncc1 [ISONIAZID] |  |  |  |  |  | MIC [9]: 4 µg/mL (≈ 29.2 µM)
NC[C@H]1O[C@H](O[C@H]2[C@H](O)[C@@H](O[C@H]3O[C@H](CO)[C@@H](O)[C@H](N)[C@H]3O)[C@H](N)C[C@@H]2N)[C@H](O)[C@@H](O)[C@@H]1O [KANAMYCIN] |  |  |  |  |  | zone of inhibition at 50 µg/disc [15]: 17 mm; zone of inhibition at 50 µg/disc [17]: 13 mm; zone of inhibition at 50 µg/disc [18]: 14 mm
CC1(C)S[C@@H]2[C@H](NC(=O)Cc3ccccc3)C(=O)N2[C@H]1C(=O)O [PENICILLIN G] |  |  |  |  |  | zone of inhibition at 50 µg/disc [13]: 8 mm
COc1cc([C@@H]2c3cc4c(cc3[C@H](O)[C@H]3COC(=O)[C@H]23)OCO4)cc(OC)c1OC [PODOFILOX] |  |  |  |  |  | IC50 [2]: 0.012 µM
CN(C)[C@@H]1C(O)=C(C(N)=O)C(=O)[C@@]2(O)C(O)=C3C(=O)c4c(O)cccc4[C@@](C)(O)[C@H]3C[C@@H]12 [TETRACYCLINE] |  |  |  |  |  | zone of inhibition at 50 µg/disc [14]: 13 mm
